Data set [1] deals with T1, Caspase-3 (Homo sapiens) (UniProt P42574).
T1 sequence (whole entry): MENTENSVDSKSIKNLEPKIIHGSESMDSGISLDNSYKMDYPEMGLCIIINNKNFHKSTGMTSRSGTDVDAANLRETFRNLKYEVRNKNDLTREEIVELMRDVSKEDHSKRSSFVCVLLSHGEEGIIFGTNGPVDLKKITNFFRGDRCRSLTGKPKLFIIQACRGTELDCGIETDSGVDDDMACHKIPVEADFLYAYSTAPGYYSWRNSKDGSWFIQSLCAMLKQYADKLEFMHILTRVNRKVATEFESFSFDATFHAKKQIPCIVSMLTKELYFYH
Description: Substrate activity at recombinant human caspase-3 assessed as enzyme-mediated compound cleavage after 1 hr by RP-HPLC analysis.

Data set [2] concerns the target T1, Caspase-3 (Homo sapiens). Description: Substrate activity at recombinant human caspase-3 assessed as Ac-STGSIDMVD-OH formation after 1 hr by RP-HPLC analysis.
Data set [3] has as its target T1, Caspase-3 (Homo sapiens). As to the kind of experiment: Substrate activity at recombinant human caspase-3 assessed as Ac-STGSIDMVD-OH formation after 1 hr by MALDI-TOF/MS analysis.
A short description of data set [4]: Retention time of the compound by mass spectrometric analysis. In kind it is physicochemical.
Data set [5] has as its target T1, Caspase-3 (Homo sapiens). Description: Substrate activity at recombinant human caspase-3 assessed as SPQL-CONH2 formation after 1 hr by RP-HPLC analysis.
In data set [6] the target is T1, Caspase-3 (Homo sapiens). Description: Inhibition of recombinant human caspase-3 at 50 uM using fluorogenic peptide substrate Ac-DEVD-MCA after 30 mins incubation by spectrofluorometric method.
Data set [7] addresses T1, Caspase-3 (Homo sapiens). As to the kind of experiment: Substrate activity at recombinant human caspase-3 assessed as SPQLAT-CONH2 formation after 1 hr by RP-HPLC analysis.
Data set [8] has as its target T1, Caspase-3 (Homo sapiens). As to the kind of experiment: Substrate activity at recombinant human caspase-3 assessed as SPQLAT-CONH2 formation after 1 hr by MALDI-TOF/MS analysis.
In data set [9] the target is T1, Caspase-3 (Homo sapiens). As to the kind of experiment: Substrate activity at recombinant human caspase-3 assessed as SIDMVD formation after 1 hr by RP-HPLC analysis.
Data set [10] addresses T1, Caspase-3 (Homo sapiens). As to the kind of experiment: Substrate activity at recombinant human caspase-3 assessed as SIDMVD formation after 1 hr by MALDI-TOF/MS analysis.
Data set [11] addresses T1, Caspase-3 (Homo sapiens). Description: Substrate activity at 3-fold excess recombinant human caspase-3 assessed as SIDMVD formation by RP-HPLC analysis. The settings on record: TDE = time-dependent effect.
Data set [12] addresses T1, Caspase-3 (Homo sapiens). As to the kind of experiment: Substrate activity at 3-fold excess recombinant human caspase-3 assessed as SPQLAT formation by RP-HPLC analysis. The settings on record: TDE = time-dependent effect.
The target in data set [13] is T1, Caspase-3 (Homo sapiens). As to the kind of experiment: Substrate activity at recombinant human caspase-3 assessed as enzyme-mediated compound cleavage after 1 hr in presence of casapase-3 inhibitor Ac-DQVD-aldehyde by RP-HPLC analysis.

The values below come from ChEMBL document CHEMBL4177523, “Ser422 phosphorylation blocks human Tau cleavage by caspase-3: Biochemical implications to Alzheimer's Disease” (Bioorg Med Chem Lett, 2017).

Calls of active or inactive are those of the source. No cut-off for these calls is given here. Square brackets hold non-standard residues; d marks the D form. Peptide text beside a SMILES is read from it. ξ: configuration not given here. ξpS = NC(COP(=O)(O)O)C(=O)O

Turning to `CC[C@H](C)[C@H](NC(=O)[C@H](CO)NC(=O)CNC(=O)[C@@H](NC(=O)[C@H](CO)NC(C)=O)[C@@H](C)O)C(=O)N[C@@H](CC(=O)O)C(=O)N[C@@H](CCSC)C(=O)N[C@H](C(=O)N[C@@H](CC(=O)O)C(=O)N[C@H](CO)C(=O)N1CCC[C@H]1C(=O)N[C@@H](CCC(N)=O)C(=O)N[C@@H](CC(C)C)C(=O)N[C@@H](C)C(N)=O)C(C)C`, the outcome on Caspase-3 (Homo sapiens) [1] was Active.

`CC[C@H](C)[C@H](NC(=O)[C@H](CO)NC(=O)CNC(=O)[C@@H](NC(=O)[C@H](CO)NC(C)=O)[C@@H](C)O)C(=O)N[C@@H](CC(=O)O)C(=O)N[C@@H](CCSC)C(=O)N[C@H](C(=O)N[C@@H](CC(=O)O)C(=O)N[C@@H](CO)C(=O)N1CCC[C@H]1C(=O)N[C@@H](CCC(N)=O)C(=O)N[C@@H](CC(C)C)C(N)=O)C(C)C` (Ac-STGSIDMVDSPQL-NH2): the result on Caspase-3 (Homo sapiens) [2], on Caspase-3 (Homo sapiens) [3] and at Caspase-3 (Homo sapiens) [5] was Active. In [4], this molecule showed a Retention_time of 31.8 min.

Broadly, the inhibition is the change of the read-out against control, counted positive when it falls. Take `CC(=O)N[C@@H](CC(=O)O)C(=O)N[C@@H](CCC(N)=O)C(=O)N[C@H](C(=O)N[C@H](C=O)CC(=O)O)C(C)C` (Ac-DQVD-aldehyde): the inhibition at Caspase-3 (Homo sapiens) [6] worked out at 97.3%.

For the molecule `CC[C@H](C)[C@H](NC(=O)[C@H](CO)NC(=O)CNC(=O)[C@@H](NC(=O)[C@H](CO)NC(C)=O)[C@@H](C)O)C(=O)N[C@@H](CC(=O)O)C(=O)N[C@@H](CCSC)C(=O)N[C@H](C(=O)N[C@@H](CC(=O)O)C(=O)O)C(C)C` (Ac-STGSIDMVD-OH), in data set [4], the Retention_time amounted to 30.6 min.

Consider `CC[C@H](C)[C@H](NC(=O)[C@H](CO)NC(=O)CNC(=O)[C@@H](NC(=O)[C@H](CO)NC(C)=O)[C@@H](C)O)C(=O)N[C@@H](CC(=O)O)C(=O)N[C@@H](CCSC)C(=O)N[C@H](C(=O)N[C@@H](CC(=O)O)C(=O)NC(COP(=O)(O)O)C(=O)N1CCC[C@H]1C(=O)N[C@@H](CCC(N)=O)C(=O)N[C@@H](CC(C)C)C(=O)N[C@@H](C)C(N)=O)C(C)C` (some centres not stated) (Ac-STGSIDMVD[ξpS]PQLA-NH2), for which the outcome on Caspase-3 (Homo sapiens) [1] was inactive.

In the case of `CC[C@H](C)[C@H](NC(=O)[C@@H](N)CO)C(=O)N[C@@H](CC(=O)O)C(=O)N[C@@H](CCSC)C(=O)N[C@H](C(=O)N[C@@H](CC(=O)O)C(=O)NC(COP(=O)(O)O)C(=O)N1CCC[C@H]1C(=O)N[C@@H](CCC(N)=O)C(=O)N[C@@H](CC(C)C)C(=O)N[C@@H](C)C(=O)N[C@H](C(N)=O)[C@@H](C)O)C(C)C` (some centres not stated) (H-SIDMVD[ξpS]PQLAT-NH2), the Retention_time in data set [4] worked out at 26.3 min. Besides, at Caspase-3 (Homo sapiens) [1], the outcome was inactive.

`CC[C@H](C)[C@H](NC(=O)[C@@H](N)CO)C(=O)N[C@@H](CC(=O)O)C(=O)N[C@@H](CCSC)C(=O)N[C@H](C(=O)N[C@@H](CC(=O)O)C(=O)O)C(C)C` (H-SIDMVD-OH) returned a Retention_time in [4] of 18.1 min.

Consider `CC[C@H](C)[C@H](NC(=O)[C@H](CO)NC(=O)CNC(=O)[C@@H](NC(=O)[C@H](CO)NC(C)=O)[C@@H](C)O)C(=O)N[C@@H](CC(=O)O)C(=O)N[C@@H](CCSC)C(=O)N[C@H](C(=O)N[C@H](CC(=O)O)C(=O)N[C@@H](CO)C(=O)N1CCC[C@H]1C(=O)N[C@@H](CCC(N)=O)C(=O)N[C@@H](CC(C)C)C(=O)N[C@@H](C)C(N)=O)C(C)C`, for which the result on Caspase-3 (Homo sapiens) [1] was inactive.

In [4], `CC(C)C[C@H](NC(=O)[C@H](CCC(N)=O)NC(=O)[C@@H]1CCCN1C(=O)[C@@H](N)CO)C(N)=O` (H-SPQL-NH2) registered a Retention_time of 19.5 min.

Molecule `CC(C)C[C@H](NC(=O)[C@H](CCC(N)=O)NC(=O)[C@@H]1CCCN1C(=O)[C@@H](N)CO)C(=O)N[C@@H](C)C(=O)N[C@H](C(N)=O)[C@@H](C)O` (H-SPQLAT-NH2) showed a Retention_time in data set [4] of 25.7 min.

With `CC[C@H](C)[C@H](NC(=O)[C@@H](N)CO)C(=O)N[C@@H](CC(=O)O)C(=O)N[C@@H](CCSC)C(=O)N[C@H](C(=O)N[C@@H](CC(=O)O)C(=O)N[C@@H](CO)C(=O)N1CCC[C@H]1C(=O)N[C@@H](CCC(N)=O)C(=O)N[C@@H](CC(C)C)C(=O)N[C@@H](C)C(=O)N[C@H](C(N)=O)[C@@H](C)O)C(C)C` (H-SIDMVDSPQLAT-NH2), the result on Caspase-3 (Homo sapiens) [7], on Caspase-3 (Homo sapiens) [8], on Caspase-3 (Homo sapiens) [9] and on Caspase-3 (Homo sapiens) [10] was Active. Further, the Retention_time in data set [4] is 27.9 min. Besides, the Activity result on Caspase-3 (Homo sapiens) [11] and at Caspase-3 (Homo sapiens) [12] was “Tde” in each case. Also, the outcome at Caspase-3 (Homo sapiens) [13] was inactive.
